Source: patent US9504745B2, “Compositions and methods for cancer treatment using targeted carbon nanotubes” (The Board of Regents of the University of Oklahoma, priority 2007, dated 2016)
Read-outs that look alike come from different tables or passages of the source.

Columns and labels:
[1] = system: 4T1 mouse mammary tumors; experiment: In vivo laser treatment of implanted 4T1 mammary tumors in mice with SWNT-annexin V complex; parameters: species or system BALB/cJ mice
Method: In another embodiment, female BALB/cJ mice, age 6 weeks (received from Jackson Laboratory (Bar Harbor, Me.) were treated. Animal experimentation was not started until the animals were 9 weeks old. The animals were kept in a dedicated room in the animal facility located in the Zoology building of the University of Oklahoma. All of the protocols used involving animals were previously submitted and approved by the Institutional Animal Care and Use Committee (IACUC). All of the animals were placed in appropriate cages with food and water in an adequate environment. Each cage hosted five animals. The anesthetics used were ketamine (100 mg/ml) and xylazine (20 mg/ml). In order to prepare the anesthetic solution, 1 ml of ketamine (100 mg/ml) was mixed with 0.5 ml of xylazine (20 mg/ml) and 8.5 ml of sterile saline solution (0.9% NaCl). The dosage used for each animal was equal to 0.1 ml of the stock solution per 10 grams of body weight. Prior to anesthetizing the animals, each of them was weighted using a scale.
In order to evaluate the ability to eradicate the tumors using this therapy in vivo, it was necessary to implant a suitable cancer cell line in the animals. The 4T1 cell line was chosen for this study, since these cells have the ability to replicate at a fast rate and also develop visible tumors in BALB/c mice in a matter of less than one week after implantation. […] After having the eight T-75 flasks growing for 2 days, there are plenty of cells to inject the animals, for each test. The cells are then lifted from the flasks using ACCUTASE® solution (Innovative Cell Technologies, San Diego, Calif.), using the same procedure as for human endothelial cells. […] Knowing that it is necessary to inject 5×10^5 cells/animal (volume=100 μl), the total number of cells was determined. The cell concentration in the sample was evaluated using the standard cell counting procedure. […]
After irradiation, the tumor volumes were monitored every two days. […] The length and width of the tumors was measured using a digital caliper. The tumor volumes were determined by applying the following formula: […]

[2] = system: human endothelial cells
Method: The effects of irradiation of SWNTs bound to endothelial cells were tested in vitro. […] The following procedure was used to treat human endothelial cells in vitro with SWNT-CMC-annexin V bound.
Cells were grown using F12K media containing 10% FBS until they reach 85% confluence in T-75 flasks, and the cells were then counted using a hemocytometer. Cancer cells (5×10^4) were transferred to 24 well plates (6 plates, with 3 wells per plate containing cells) and grown until 85% confluence was reached. Two extensive dialyses were performed (with a total dilution factor of 1,000,000×) in order to remove the sodium azide from the SWNT-CMC-biotinylated annexin V. The first dialysis for 3 hours (1000×) was performed using modification buffer (100 mM sodium phosphate, 150 mM NaCl, pH 7.2-7.4). The buffer was changed and the dialysis continued for 4 more hours. 1 ml of the suspension of SWNT-CMC-biotinylated annexin V was used. PS was exposed on the surface of cells by the addition of hydrogen peroxide (1 mM), and the cells were treated with 300 μl binding buffer containing the F12K media containing 1 mM of H2O2 for 1 hour at 37° C. The plates were washed 4× with F12K media (containing 10% FBS) (300 μl), and SWNT-CMC-biotinylated-annexin V (300 μl) was added to wells at a concentration of 20 nM. In order to obtain this concentration, the protein was diluted using F12K media (containing 10% FBS plus 2 mM Ca^2+). For each plate, the experiment was done in triplets. The plates were incubated for 2 hours in the incubator and then washed 4× with F12K media (containing 10% FBS plus 2 mM Ca^2+) (300 μl). […] Cell viability was evaluated one hour later by adding Alamar Blue in an amount equal to 10% of culture media (30 μl of Alamar Blue+300 μl of media) volume to the wells. […] Fluorescence was then measured at 590 nm (using excitation at 530 nm). […] The cells that were attached were treated with trypsin, and the cells were combined in the 96-well plates and counted in a hemocytometer. […]

[3] = system: human endothelial cells with phosphatidylserine exposed by H2O2; experiment: Binding of SWNT-annexin V (biotinylated) to human endothelial cells in vitro (streptavidin-HRP/OPD, A450)
Method: Purified recombinant annexin V was labeled with biotin for detection (SureLINK chromophoric biotin labeling kit; KPL, Gaithersburg, Md.) with a 40-molar excess of biotin. Biotin labeling of annexin V has been found previously not to impair the PS-binding of annexin V. The following procedure was used to measure the binding of the SWNT-annexin V (biotinylated) to human endothelial cells in vitro.
Human endothelial cells (American Type Culture Collection, Manassas, Va.) were grown as monolayers in T-75 flasks. […] The cells were fixed by adding 100 μl of phosphate buffered saline (PBS) buffer containing 0.25% glutaraldehyde and Ca^2+ (2 mM). Excess aldehyde groups were quenched by incubating with 50 mM of NH4Cl (100 μl) diluted in PBS buffer containing Ca^2+ (2 mM) for 5 minutes. The SWNT-annexin V conjugate was diluted in 0.5% BSA diluted in PBS buffer and Ca^2+ (2 mM) with an initial concentration of […]. This concentrated fusion protein solution was serially diluted 2-fold until a final concentration of 6.7 μM. SWNT-CMC-annexin V (300 μl) was added to wells in the increasing concentration of SWNT-CMC-annexin V. For each concentration of SWNT-CMC-annexin V, the experiment was done in duplicate and incubated for 2 hours. Plates were washed with 0.5% BSA diluted in PBS buffer and Ca^2+ (2 mM) (300 μl). 300 μl of streptadivin-HRP (horseradish peroxidase) (2 μg/ml) was added and incubated for 1 hour at room temperature. The plate was then washed with PBS (300 μl), and the chromogenic substrate O-phenylenediamine (OPD, 300 μl) was added and incubated for 30 minutes. 100 μl of the supernatant was then transferred to 96-well plates, and absorbance was measured at 450 nm (Biotek KC4 microtiter plate reader) using a blank that omits the addition of SWNT-annexin V described above.
The data obtained above for the binding of SWNT-CMC-annexin V to human endothelial cells in vitro was used in the determination of the dissociation constant (Kd). […]

[4] = system: human endothelial cells; experiment: Laser irradiation of human endothelial cells with SWNT-Fmoc-NH-PEG-NHS-annexin V bound (Alamar Blue); type: cell-based; conditions: 20 nM protein
Method: The procedure described above was applied using the human annexin V protein but any Annexin described herein could be used. […] The media was warmed up in the incubator at 37° C. and then removed from the wells. […] For each plate, the experiment was performed in triplets.
The samples (300 μl/well) were then transferred to a 96-microtiter plate, and fluorescence was measured at 590 nm (using excitation at 530 nm).

[5] = system: human endothelial cells; experiment: Laser treatment of human endothelial cells with SWNT-annexin V complex, SDS method (Alamar Blue); type: cell-based
Method: SWNTs with annexin V conjugated using the Fmoc-NH-PEG-NHS linker added via the SDS method were used in a laser test with endothelial cells. […] The endothelial cells were transferred to 24 well plates (5×10^4 cells per well) and grown until 100% confluence was reached. A separate plate was used for each different treatment. The media was warmed up in the incubator at 37° C., and the media was removed from the wells. […] For each plate, the experiment was done with two or three wells.
300 μl of F12K media was added with 2 mM Ca^2+ to the wells, and the laser treatment was performed on each well using a beam with a diameter of 1.8 cm, power level of 3.9 W, and beam time of 130 s (energy density=199 J/cm^2).
Then, SWNT-annexing V was added to the wells as described above.

[6] = system: non-small-cell lung cancer (NSCLC) with pleural spread; conditions: 22 patients, photosensitizer 24 hours before surgery, 603 nm light; cited from earlier work
[7] = patients; cited from earlier work
[8] = human endothelial cells, FIG. 1

O=P1(N(CCCl)CCCl)NCCCO1 (centres unmarked) [CY, cyclophosphamide]
effect of addition of CY on tumor volume reduction ([1]; CY 50 mg/kg i.p. added to SWNTs+Laser): did not translate into a significant difference | effect of CY on metastatic nodules compared to laser+SWNT treatment alone ([1]; lungs): did not lead to fewer metastatic nodules | effect of addition of CY on survival ([1]; treatment group that received CY compared to the one that did not): increased survival

SWNT-CMC-annexin V: Recombinant annexin V (biotinylated) conjugated via EDC/NHS to carboxymethylcellulose (30 kDa) adsorbed to single-walled carbon nanotubes
difference in RFU between cells with nanotubes and cells without nanotubes [2]: no significant difference | cell number at 4 W/cm^2 relative to 0 W/cm^2 ([2]; 20 nM complex bound, 980 nm, 20 J/cm^2, hemocytometer): 50% | difference in RFU between cells with nanotubes and cells without nanotubes ([2]; power level of 2 W/cm^2, 980 nm, 20 J/cm^2): no significant difference | Kd ([3]; binding to human endothelial cells in vitro, PS exposed with 1 mM H2O2, fit with Prism 5, read-out: dissociation constant (Kd)): 2.9 nM | binding to the cells [3, 8]: binding to the cells increased as the annexin V-SWNT complex concentration increased | concentration above which transition from negligible binding to measurable binding occurred [3, 8]: > 1000 pM

SWNT-Fmoc-NH-PEG-NHS-annexin V: Human annexin V attached via Fmoc-NH-PEG-NHS linker adsorbed to SWNTs dispersed with sodium cholate
effect on the cells (Alamar Blue) ([4]; with laser 980 nm 1.50 W/cm^2 for 130 seconds (195 J/cm^2), H2O2, 85% confluence): killing virtually all of the cells | effect on the cells (Alamar Blue) ([4]; without laser): no effect on the cells

SWNT-annexin V: SWNTs with annexin V conjugated using the Fmoc-NH-PEG-NHS linker added via the SDS method
cell viability ([5]; 0.89 mg/L SWNT, 299 J/cm^2, hydrogen peroxide, versus 199 J/cm^2): again lower | reduction of cell viability compared with untreated cells ([5]; 0.89 mg/L SWNTs, laser energy 199 J/cm^2, hydrogen peroxide, 100% confluent cells): 60% | effect on cell viability ([5]; laser at 199 J/cm^2, 0.06-0.89 mg/L SWNT, no H2O2, significant (p<0.05) at 0.89 mg/L): concentration-dependent effect on cell viability | effect on the cells (Alamar Blue) ([5]; without laser (plate 2, 0.06 mg/L SWNT)): no effect on the cells

porfimer sodium [porfirmer sodium]
median survival [6]: 21 months | side effect [7]: prolonged skin photosensitivity
